Consider two molecules from patent US20160122723A1, “ENGINEERED THREE-DIMENSIONAL SKIN TISSUES, ARRAYS THEREOF, AND METHODS OF MAKING THE SAME” (ORGANOVO, INC., priority 2014, published 2016).

What all share (format): cell-based, human
Series [1] concerns bioprinted full thickness skin tissue. The experiment in a line: Skin irritation test, LDH activity, 15 minute exposure, 24 well plate format (Example 5). The source says:
Bio-ink was generated by a cellular mixture of 100% primary adult human dermal fibroblasts (HDFa) in 8% gelatin (Novogel® 2.0) in a concentration of 50 million cells per milliliter. The cell: gelatin ratio was altered to further reduce the cellular density of the dermal sheet to better mimic dermal tissue in native skin. Three-dimensional bio-ink constructs were printed by continuous deposition using the Novogen Bioprinter® platform in a 2 mm×2 mm×0.5 mm base sheet to create a dermal structure resembling a sheet. A smaller syringe needle was used to achieve greater resolution at the reduced size. Instead of printing one 0.5 mm sheet with a 500 μm diameter syringe needle, two layers of 0.25 mm sheets printed with a 250 μm diameter needle. One tissue construct was printed per transwell-in a 24 well plate. The transwell printing surface contained a polytetrafluoroethylene (PTFE)-membrane coated with equimolar mixture of types I and III collagen (bovine) with pores 3 μm in-size. […] Cell paste was measured post print at 96.0% viable by trypan exclusion assay. […] IL-1α production (R&D Systems) was analyzed in a colorimetric assays per manufacturer's protocol. Media was analyzed for lactate dehydrogenase as a marker for cytotoxicity. IL-1α production was assessed as a complementary endpoint to classic cytotoxicity testing to improve predictability of irritants. […]

The test system is the same in series [2]. The experiment in a line: Skin irritation test, viability by alamar blue assay, 15 minute exposure, 24 well plate format (Example 5). The source says:
(§1) Bio-ink was generated by a cellular mixture of 100% primary adult human dermal fibroblasts (HDFa) in 8% gelatin (Novogel® 2.0) in a concentration of 50 million cells per milliliter. The cell: gelatin ratio was altered to further reduce the cellular density of the dermal sheet to better mimic dermal tissue in native skin. Three-dimensional bio-ink constructs were printed by continuous deposition using the Novogen Bioprinter® platform in a 2 mm×2 mm×0.5 mm base sheet to create a dermal structure resembling a sheet. A smaller syringe needle was used to achieve greater resolution at the reduced size. Instead of printing one 0.5 mm sheet with a 500 μm diameter syringe needle, two layers of 0.25 mm sheets printed with a 250 μm diameter needle. One tissue construct was printed per transwell-in a 24 well plate. The transwell printing surface contained a polytetrafluoroethylene (PTFE)-membrane coated with equimolar mixture of types I and III collagen (bovine) with pores 3 μm in-size. Epidermal cell paste containing a mixture of 100% primary neonatal human epidermal keratinocytes (HEKn) was then printed on top of the dermal bio-ink. Cell paste was measured post print at 96.0% viable by trypan exclusion assay. Cell number in deposited epidermal layer was estimated at 11,000 cells by cell counting on a Cell-O-Meter. Immediately following the print, constructs were placed in 4° C. for 10 minutes. This is a key step to harden the Novogel®, which helps to maintain the printed shape and improve construct to construct uniformity. Cold media was then added to the outer well of the transwell in a volume of 1 ml. The media used for subsequent growth and maintenance of the skin tissue was a 50:50 ratio of HDFa:HEKn media. The initial volume added was sufficient to submerge the structure. […] IL-1α production (R&D Systems) was analyzed in a colorimetric assays per manufacturer's protocol. Media was analyzed for lactate dehydrogenase as a marker for cytotoxicity. IL-1α production was assessed as a complementary endpoint to classic cytotoxicity testing to improve predictability of irritants. […]

Series [3] has the same test system. The experiment in a line: Skin irritation test, IL-1α production, 15 minute exposure, 24 well plate format (Example 5).
Text: as §1

The test system is the same in series [4]. Kind of series: Skin irritation test, viability by alamar blue assay, 1 hour exposure (Example 4). The settings on record: 1% for 1 hour; 48 hours post treatment (day 12). The source says:
(§2) Bio-ink was generated by a cellular mixture of 100% primary adult human dermal fibroblasts (HDFa) in 8% gelatin (Novogel® 2.0) at a concentration of 100 million cells per milliliter. The cell: gelatin ratio was altered to reduce the cellular density of the dermal sheet to better mimic dermal tissue in native skin. Three-dimensional bio-ink constructs were printed by continuous deposition using the Novogen Bioprinter® platform in a 4 mm×4 mm×0.5 mm base to create a dermal structure resembling a sheet. One tissue construct was printed per transwell in a […]. The transwell printing surface contained a polytetrafluoroethylene (PTFE) membrane coated with equimolar mixture of types I and III collagen (bovine) with pores 3 μm in size. Epidermal cell paste containing a mixture of 100% primary neonatal human epidermal keratinocytes (HEKn) was then printed on top of the dermal bio-ink. Cell paste was measured post print at 87.1% viable by trypan exclusion assay. Cell numbers in the deposited epidermal layer was estimated at 60,000 cells by cell counting on a Cell-O-Meter. […] IL-1α production (R&D Systems) was analyzed in a colorimetric assays per manufacturer's protocol. Media was analyzed for lactate dehydrogenase as a marker for cytotoxicity. IL-1α production was assessed as a complementary endpoint to classic cytotoxicity testing to improve predictability of irritants. […]

The test system is the same in series [5]. Kind of series: Skin irritation test, IL-1α production in media, colorimetric assay, 1 hour exposure (Example 4). As to conditions: 1% for 1 hour.
Text: as §2, with “Cell-O-Meter. Immediately following the print, constructs were placed at 4° C. for 10 minutes. Cold media was then added to the outer well of the transwell in a volume of 3 ml. The media used for subsequent growth and maintenance of the skin tissue was a 50:50 ratio of HDFa:HEKn media. The initial volume added was sufficient to submerge the structure. All subsequent media changes used warmed media (37° C.) added to the outer well of the transwell and not to the inner basket. Media was changed 48 hours later and reduced to a volume of 1.5 ml per well to bring the structure to an air-liquid interface (ALI). Media and subsequently changed 48 hours after that (day 4) at a volume of 1.5 ml.” for “Cell-O-Meter.”

For series [6] the test system is unchanged. The experiment in a line: Skin irritation test, qPCR gene expression analysis (Example 4). As to conditions: 1% for 1 hour. The source says:
Bio-ink was generated by a cellular mixture of 100% primary adult human dermal fibroblasts (HDFa) in 8% gelatin (Novogel® 2.0) at a concentration of 100 million cells per milliliter. The cell: gelatin ratio was altered to reduce the cellular density of the dermal sheet to better mimic dermal tissue in native skin. Three-dimensional bio-ink constructs were printed by continuous deposition using the Novogen Bioprinter® platform in a 4 mm×4 mm×0.5 mm base to create a dermal structure resembling a sheet. One tissue construct was printed per transwell in a […]. The transwell printing surface contained a polytetrafluoroethylene (PTFE) membrane coated with equimolar mixture of types I and III collagen (bovine) with pores 3 μm in size. Epidermal cell paste containing a mixture of 100% primary neonatal human epidermal keratinocytes (HEKn) was then printed on top of the dermal bio-ink. Cell paste was measured post print at 87.1% viable by trypan exclusion assay. Cell numbers in the deposited epidermal layer was estimated at 60,000 cells by cell counting on a Cell-O-Meter. Immediately following the print, constructs were placed at 4° C. for 10 minutes. Cold media was then added to the outer well of the transwell in a volume of 3 ml. The media used for subsequent growth and maintenance of the skin tissue was a 50:50 ratio of HDFa:HEKn media. The initial volume added was sufficient to submerge the structure. All subsequent media changes used warmed media (37° C.) added to the outer well of the transwell and not to the inner basket. Media was changed 48 hours later and reduced to a volume of 1.5 ml per well to bring the structure to an air-liquid interface (ALI). Media and subsequently changed 48 hours after that (day 4) at a volume of 1.5 ml. On day 5, media was changed and further reduced to 1 ml per well and subsequently changed daily. On day 10, skin tissues were subject to a skin irritation test method using 1% Triton X 100. 1% Triton X-100™ is a known irritant and reference chemical currently used in other 3D skin models. Methods were based on OECD guidelines 439 and 431 for applying human skin models to in vitro skin irritation or corrosion, respectively. On day 10, conditioned media was saved (designated time=0) and 1 ml of fresh media was added to the outer well of the transwell. The printed skin tissue was then treated with 20 μl of PBS as a negative control or with 20 μl of 1% Triton X-100™ as a positive control and known irritant. […] IL-1α production (R&D Systems) was analyzed in a colorimetric assays per manufacturer's protocol. Media was analyzed for lactate dehydrogenase as a marker for cytotoxicity. IL-1α production was assessed as a complementary endpoint to classic cytotoxicity testing to improve predictability of irritants. […]
(Real-time PCR tracks product formation cycle by cycle.)

The test system is the same in series [7]. The experiment in a line: Skin irritation test, lactate dehydrogenase (LDH) activity in media, 1 hour exposure (Example 4). As to conditions: 1% Triton X 100 for 1 hour, apical; at 1 hour, 24 hours and 48 hours post treatment.
Text: as §2

For series [8] the test system is unchanged. Kind of series: Skin irritation test, macroscopic and histological analysis (H&E, CK5/IVL, CK10, collagen 3, PCNA, TUNEL) (Example 4). The settings on record: 1% for 1 hour. The source says:
Bio-ink was generated by a cellular mixture of 100% primary adult human dermal fibroblasts (HDFa) in 8% gelatin (Novogel® 2.0) at a concentration of 100 million cells per milliliter. The cell: gelatin ratio was altered to reduce the cellular density of the dermal sheet to better mimic dermal tissue in native skin. Three-dimensional bio-ink constructs were printed by continuous deposition using the Novogen Bioprinter® platform in a 4 mm×4 mm×0.5 mm base to create a dermal structure resembling a sheet. One tissue construct was printed per transwell in a […]. The transwell printing surface contained a polytetrafluoroethylene (PTFE) membrane coated with equimolar mixture of types I and III collagen (bovine) with pores 3 μm in size. Epidermal cell paste containing a mixture of 100% primary neonatal human epidermal keratinocytes (HEKn) was then printed on top of the dermal bio-ink. Cell paste was measured post print at 87.1% viable by trypan exclusion assay. Cell numbers in the deposited epidermal layer was estimated at 60,000 cells by cell counting on a Cell-O-Meter. Immediately following the print, constructs were placed at 4° C. for 10 minutes. Cold media was then added to the outer well of the transwell in a volume of 3 ml. The media used for subsequent growth and maintenance of the skin tissue was a 50:50 ratio of HDFa:HEKn media. The initial volume added was sufficient to submerge the structure. All subsequent media changes used warmed media (37° C.) added to the outer well of the transwell and not to the inner basket. Media was changed 48 hours later and reduced to a volume of 1.5 ml per well to bring the structure to an air-liquid interface (ALI). Media and subsequently changed 48 hours after that (day 4) at a volume of 1.5 ml. On day 5, media was changed and further reduced to 1 ml per well and subsequently changed daily. On day 10, skin tissues were subject to a skin irritation test method using 1% Triton X 100. 1% Triton X-100™ is a known irritant and reference chemical currently used in other 3D skin models. Methods were based on OECD guidelines 439 and 431 for applying human skin models to in vitro skin irritation or corrosion, respectively. On day 10, conditioned media was saved (designated time=0) and 1 ml of fresh media was added to the outer well of the transwell. The printed skin tissue was then treated with 20 μl of PBS as a negative control or with 20 μl of 1% Triton X-100™ as a positive control and known irritant. Test substances were pipetted manually to the apical surface of the tissue. Triton X-100™ was diluted to a 1% aqueous solution in deionized water and sterile filtered through a […] filter before use. Samples were incubated for 30 minutes at 37° C. followed by 30 minutes at room temperature for a total of 60 minutes. Media was saved (designated time=1 hour). Samples were then washed extensively by PBS rinsing. Transwells were then placed in a new 6-well plate with fresh media (1 ml) added to the outer well then placed back into 37° C. overnight. The media was then changed at 24 hours and at 48 hours post treatment. Total media collected included time points=−48, 0, 1, 24, and 48 hours. IL-1α production (R&D Systems) was analyzed in a colorimetric assays per manufacturer's protocol. Media was analyzed for lactate dehydrogenase as a marker for cytotoxicity. IL-1α production was assessed as a complementary endpoint to classic cytotoxicity testing to improve predictability of irritants. Keratinocytes normally produce and release inflammatory cytokine IL-1α in response to chemical or physical stress. At 48 hours post treatment (day 12), tissues were either lysed for RNA extraction and subsequent qPCR analysis, or tested for viability by alamar blue assay then rinsed in PBS and fixed with 2% PFA for histological analysis. Alamar blue (Life Technologies) was added per manufacturer's instructions to media and incubated with tissue constructs (1 ml) at 37° C. for 3 hours. […]

Like-named read-outs stand apart in the source and are kept apart here.

Turning to `CCCCCCCCCCCCOS(=O)(=O)[O-].[Na+]` [SDS], the “LDH activity higher than PBS” value in series [1] is recorded as “about 1.7 fold”. In series [2], the “irritant strength under these testing conditions” value is recorded as “much stronger irritant” and the “viable compared to the PBS control (alamar blue)” value is reported as 2.45%. For the same molecule, in series [3], the IL-1a production result is “induced” and the “IL-1a production, response compared between the two irritants” value is on record as “much stronger response”.
For the molecule Triton X-100, the “LDH activity higher than PBS” value in series [1] (15 minute exposure, 5% SDS or 1% Triton X, 42 hours post exposure) was “about 1.4 fold”. The “reduction in viability as compared to the PBS control” value in series [4] is 80%. The “viable compared to the PBS control (alamar blue)” value in series [2] (15 minute exposure, 5% SDS or 1% Triton X, 42 hours post treatment (day 15)) was found to be 68.75%. Also, the IL-1α levels result in series [5] (24 hours post treatment) is “remained high”. The IL-1α levels entry in series [5] (48 hours post treatment) is recorded as “returned to baseline”. In addition, the “IL-1α activity in comparison to PBS control” value in series [5] (greatest difference observed 1 hour post treatment) is “increased”. In series [6] (48 hours post exposure), the “CK1 and CK10 gene expression” value was “reduced”; the “collagen production of types 1, 3, and 4 collagen (gene expression)” value was “reduced”; the “expression of both epidermal and dermal markers” value is given as “dramatically reduces”. Besides, the “IL1a gene expression increase in comparison to the PBS control” value in series [6] (48 hours post treatment) is reported as “about 3 fold”. Further, in series [7], the “induction in LDH activity compared to PBS control” value is “roughly 2 fold”. Besides, the IL-1a production entry in series [3] (15 minute exposure, 5% SDS or 1% Triton X) is on record as “induced”. Besides, in series [8], the “irritancy to bioprinted skin as suggested by histology” value is “irritant”. Moreover, in series [8] (48 hours post treatment), the “CK5 positive basal keratinocyte layer” value was “fragmented”; the “Collagen 3 staining compared to the PBS control” value was “reduction in dermal fibroblast function”; the “apoptosis by TUNEL staining in the dermal layer” value is listed as “increase in apoptosis”; the “histological analysis by H&E” value is “separation of the epidermal and dermal layers”. The “proliferation by PCNA staining” value in series [8] (48 hours post treatment, dermal fibroblasts and basal layer) is on record as “reduction in proliferation”.
